Target: TRPA1 (Mus musculus, UniProt Q8BLA8)
Experiment: Ca2+ imaging and whole-cell patch clamp in TRPA1-transfected CHO cells
Format: cell-based

Chain of TRPA1 (Q8BLA8 whole entry): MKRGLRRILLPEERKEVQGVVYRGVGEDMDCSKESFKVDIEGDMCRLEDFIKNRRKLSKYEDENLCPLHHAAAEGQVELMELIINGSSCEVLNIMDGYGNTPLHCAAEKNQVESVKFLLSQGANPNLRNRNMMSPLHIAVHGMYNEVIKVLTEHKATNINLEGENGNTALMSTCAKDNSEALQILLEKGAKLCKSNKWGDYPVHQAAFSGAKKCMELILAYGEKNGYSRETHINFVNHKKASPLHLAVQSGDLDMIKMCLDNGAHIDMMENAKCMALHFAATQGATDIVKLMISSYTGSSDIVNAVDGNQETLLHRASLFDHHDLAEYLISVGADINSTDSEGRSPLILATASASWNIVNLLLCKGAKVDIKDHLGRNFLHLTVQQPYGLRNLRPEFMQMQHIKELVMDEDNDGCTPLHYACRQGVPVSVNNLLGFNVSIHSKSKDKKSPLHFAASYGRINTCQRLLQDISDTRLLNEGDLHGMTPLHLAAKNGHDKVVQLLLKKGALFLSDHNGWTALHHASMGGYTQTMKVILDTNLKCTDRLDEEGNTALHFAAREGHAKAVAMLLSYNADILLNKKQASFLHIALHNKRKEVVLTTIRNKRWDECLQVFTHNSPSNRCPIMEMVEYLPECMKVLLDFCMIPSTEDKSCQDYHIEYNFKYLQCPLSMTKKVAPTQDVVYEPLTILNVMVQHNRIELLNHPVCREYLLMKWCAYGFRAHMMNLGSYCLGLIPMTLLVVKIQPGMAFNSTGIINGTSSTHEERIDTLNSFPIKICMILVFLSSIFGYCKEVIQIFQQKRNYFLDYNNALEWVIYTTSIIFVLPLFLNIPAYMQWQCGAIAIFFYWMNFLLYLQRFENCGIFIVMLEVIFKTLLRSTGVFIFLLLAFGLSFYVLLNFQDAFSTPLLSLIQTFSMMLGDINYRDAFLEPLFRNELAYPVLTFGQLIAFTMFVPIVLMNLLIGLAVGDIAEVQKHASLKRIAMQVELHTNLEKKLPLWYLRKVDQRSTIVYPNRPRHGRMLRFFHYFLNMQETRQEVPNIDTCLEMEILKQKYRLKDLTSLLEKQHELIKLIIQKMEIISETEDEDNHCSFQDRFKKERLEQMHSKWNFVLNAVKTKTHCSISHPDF

COc1ccc(C(=O)c2c(C)n(CCN3CCOCC3)c3cc(I)ccc23)cc1 [AM630]
EC50: 2000 nM
